Experimental data as given in US6900041B2, “Methods and compositions for the treatment of inflammatory diseases” (Reddy US Therapeutics Inc., priority 2000, dated 2005).

Assays:
Format in all cases: cell-based, human
GSK-3β expression [1] = assay: GSK-3β immunoblotting (Western blot, densitometry) of endothelial cells; details: 24 hours
Procedure: GSK-3β-immunoblotting analyses of endothelial cells treated with different inflammatory and non-inflammatory agents were performed.
Cells were treated as taught in Examples 1 and 2. Endothelial cells were incubated with an agent for 24 hours. […] After incubation, the cells were washed, lysed and separated by polyacrylamide gel electrophoresis. Western blotting was performed, using antibody directed to GSK-3β, and detected.

VCAM-1 expression = assay: VCAM-1 ELISA on endothelial cell monolayers; details: 24 h
Procedure: HMVEC cells were treated with control medium or medium containing 10 ng/ml TNFα or 100 μg/ml glycated-HSA for 24 hrs. All treatments and controls were carried out in serum free media containing 0.2% albumin. Following treatment, cell media were collected and used for IL-6, MCP-1 ELISA and cells were used for VCAM-1 ELISA which was conducted in situ without lysis. Inhibition of GSK-3β altered inflammation-related adhesion molecule expression. VCAM-1 is an endothelial adhesion molecule that facilitates monocyte infiltration into the blood vessel (3). Cells were treated as described in Example 2. Endothelial cells were exposed to KCl (10 mM, as a control) or with TNFα (10 ng/ml); LiCl (10 mM) alone and with TNFα (10 ng/ml), insulin (1 nM) alone or with TNFα (10 ng/ml). Following incubation for 24 h, […] assayed for VCAM-1 by ELISA. VCAM-1 ELISA was performed on monolayers of endothelial cells in 96 well plates. Wells were incubated with 100 μl of 1:1000 dilution of primary antibody (polyclonal goat anti-human VCAM-1 from R&D Systems) in medium containing 10% FBS. A rabbit anti-goat IgG-HRP was used as secondary antibody and ELISA was performed as described for MCP-1 above.

GSK-3β promoter = assay: GSK-3β promoter-luciferase reporter assay in transfected BAEC; details: TNFα 10 ng/ml, 24-48 hours
Procedure: pGL3-GSK3B−1478/+534 was transfected into bovine aortic endothelial cells (BAEC) by electroporation. Transfected cells were aliquoted into 96 well plates and allowed to recover in full media for 16-24 hours. […] Luciferase activity was measured in cell lysates using Bright-Glo Luciferase Assay System (Promega).

[2] = test system: IL-6 production by endothelial cells; assay: IL-6 ELISA of endothelial cell media
Procedure: Human aortic (HAEC) and microvascular (HMVEC) endothelial cells (Clonetics) were cultured and subcultured according to manufacturer in growth medium (Clonetics): basal medium containing hEGF, hydrocortisone, VEGF, HFGF-B (w/heparin), long R3-IGF-1, Ascorbic acid, gentamicin/amphotericin and 5% FBS. These cell were allowed to reach >90% confluency before being subjected to experimental treatments. […] Tumor necrosis factor α was from R&D Systems. Cells were incubated with 20 mM lithium (as LiCl or with 20 mM KCl as control) in the presence or absence of TNFα (10 ng/ml). Insulin (1 nM) was also used to inhibit GSK-3β.
HMVEC cells were treated with control medium or medium containing 10 ng/ml TNFα or 100 μg/ml glycated-HSA for 24 hrs. All treatments and controls were carried out in serum free media containing 0.2% albumin. […]
IL-6 ELISA was carried out using human IL-6 DuoSet ELISA development kit as described by manufacturer (R&D Systems). […] Color development was read at 450 nm in a microplate reader. […]
Following 24 h transfection, the cells were incubated for 24 h with medium alone or medium containing 300 μg/ml glycated albumin (AGE) or medium containing 10 ng/ml TNF-α. IL-6 and MCP-1 were determined by ELISA, as shown in Examples 2 and 3.
Empty vectors or vectors carrying alkaline phosphatase were used as controls. […] IL-6 and MCP-1 were determined by ELISA as described in Examples 2 and 3.

GSK-3β expression [3] = assay: RT-PCR of GSK-3β in endothelial cells; details: endothelial cells (HMVEC); TNFα 10 ng/ml or AGE 100 μg/ml; 8 hours; vs control
Procedure: HMVEC cells were treated with control medium or medium containing 10 ng/ml TNFα or 100 μg/ml glycated-HSA for 24 hrs. All treatments and controls were carried out in serum free media containing 0.2% albumin. Cells were collected into cold PBS using a cell scraper and used for RNA isolation.
Endothelial cells were incubated in media alone (control) or media containing TNFα (10 ng/ml) or AGE (100 μg/ml) for 8 hours. Poly (A) RNA was isolated and used as template for RT-PCR. Poly (A)+RNA was isolated from confluent cultures of HMVEC incubated under various conditions, using the Micropoly (A) pure kit (Ambion). RT-PCR with Superscript First-strand synthesis system (BRL) was performed according to the manufacture's instructions. […] 2: [sequence], representing a 406 bp region (from 519-925) in the coding sequence of GSK-3β (GSK-3β GenBank Accession No. L33801). […] PCR was carried out by using an initial denaturing step at 96° C. for 5 min, then cycle 35-times (or 25 times for quantitative RT-PCR) between 96° C. for 1 min, 58° C. for 45 sec, and 72° C. for 2 min. […] Samples (10 μl) were analyzed on a 1% agarose gel and stained with ethidium bromide and visualized by UV Tran illuminator (UIVP).

[4] = test system: MCP-1 production by endothelial cells; assay: MCP-1 ELISA of endothelial cell media; details: 24 h
Procedure: MCP-1 ELISA was carried out using Quantikine Human MCP-1 kit as described by manufacturer (R&D Systems). Mouse anti-human MCP-1 was used as the capture antibody and HRP-conjugated goat anti-human MCP-1 was used as the detection antibody. Culture media were incubated with capture antibody (in 96 well) for 2 h at room temperature. Wells were washed three times with wash buffer (0.05% Tween-20 in PBS followed by incubation with detection antibody for 2 h at room temperature. Color development was read at 450 nm in a microplate reader.
Endothelial cells, as grown in Example 1 and 2, were transfected with oligonucleotides using Cytofectin transfection reagent. […] IL-6 and MCP-1 were determined by ELISA, as shown in Examples 2 and 3.
Inhibition of GSK-3β led to […] inflammatory gene expression in endothelial cells. Overexpression of GSK-3β protein inhibited inducible inflammatory gene expression in endothelial cells. Full length GSK-3β cDNA was cloned into a retroviral vector pLIB. Empty vectors or vectors carrying alkaline phosphatase were used as controls. Retroviral particles carrying different genes were generated in HEK-293 cells. […] IL-6 and MCP-1 were determined by ELISA as described in Examples 2 and 3.

## VEGF
GSK-3β expression [1]; VEGF 10 ng/ml
  induction of GSK-3β expression: ~2 fold

## TNFα
VCAM-1 expression; TNFα 10 ng/ml alone
  VCAM-1 expression, % of basal levels: 340%
GSK-3β promoter
  decrease of GSK-3β promoter activity (luciferase): greater than 50%
[2]; TNFα 10 ng/ml alone, 24 h
  increase in IL-6 secretion: greater than 10 fold
[2]; endothelial cells transduced with control vector
  induction of IL-6 expression: 10 fold
GSK-3β expression [1]; TNF-α 10 ng/ml, AGE 300 μg/ml, oxidized LDL 100 μg/ml, IL-1β 1 ng/ml
  decrease of GSK-3β expression: 70%
GSK-3β expression [3]
  intensity of the 406 bp GSK-3β RT-PCR band: decreased

## insulin: known inhibitor of GSK-3β
VCAM-1 expression; agent alone (LiCl 10 mM, insulin 1 nM)
  effect on VCAM expression: did not significantly affect
VCAM-1 expression; insulin 1 nM together with TNFα 10 ng/ml, vs TNFα alone
  effect on TNFα-induced VCAM-1 expression: almost doubled the effect of TNFα alone
[4]; added together with AGE 300 μg/ml, LiCl 10 mM or insulin 1 nM
  increase of MCP-1: approximately 2.8 fold
[4]; agent alone (LiCl 10 mM, insulin 1 nM), vs 10 mM KCl (about 400 pg/ml)
  increase of MCP-1 secretion: about 50%
